Measured values taken from US8895260B2, “Screening assay for ribosomal antibiotics” (priority 2006, dated 2014).

What was measured:
Format in all cases: cell-based, Mycobacterium smegmatis
[1] = system: wild type bacterial cells 1408A; experiment: MIC of rRNA mutants, wild type bacterial cells 1408A
Procedure: (§1) The recombinants carrying the respective mutational alterations in the functional rRNA operon were colony-purified and subjected to determinations of minimal inhibitory concentrations (MIC) to determine ribosomal drug susceptibility. Cultures from single colonies were grown in LB medium supplemented with 0.05% Tween 80 and used for MIC tests in a microtiter plate format. Starting cultures contained 200 μl of bacterial cells at an optical density of 0.025 at 600 nm, and the respective drug was added in twofold series of dilution.
(§2) This was illustrated by the polymorphism of 16S rRNA position 1408 and susceptibility to 4,6-aminoglycosides with a 6′ NH3 group (e.g. gentamicin, tobramycin, kanamycin). 4,6-aminoglycosides with a 6′ NH3 group bound to the ribosomal A-site encompassing nucleotides […] and selectively targeted the bacterial ribosome, but not the eukaryotic cytoplasmic ribosome. An important polymorphism in the rRNA concerns nucleotide position 1408: prokaryotic ribosomes are characterized by an adenine, eukaryotic cytoplasmic ribosomes by a guanine. Replacing the adenine by a guanine at 16S rRNA position 1408 made the bacterial ribosome completely unsusceptible towards 4,6-amino-glycosides with a 6′ NH3 group (see Table). […]

[2] = system: mutant bacterial cells 1408G; experiment: MIC of rRNA mutants, mutant bacterial cells 1408G (human cytoplasmic nucleotide at 16S rRNA position 1408)
Procedure: as §1, §2

M. smegmatis = experiment: MIC, M. smegmatis with bacterial rRNA decoding site; design: unit not given here
Procedure: as §1
(§3) The MIC data shown below in example 5 were obtained with bacterial hybrid ribosomes carrying human and protozoan rRNA decoding sites in a method of the invention. […] Nucleotide positions depicted in bold represent residues that are specific for the corresponding eukaryotic decoding site. The part of the human and protozoan decoding sites introduced into the bacterial ribsosome is boxed. The nucleotide positions are numbered according to the numbering of homologous positions in E. coli 16S rRNA.

[3] = system: bacterial hybrid ribosomes carrying Homo sapiens mitochondrion rRNA decoding site; experiment: MIC, bacterial hybrid ribosomes carrying human mitochondrial rRNA decoding site; design: unit not given here; details: Homo sapiens mitochondrion decoding site in bacterial hybrid ribosome
Procedure: as §1, §3

[4] = system: bacterial hybrid ribosomes carrying Leishmania Trypanosoma rRNA decoding site; experiment: MIC, bacterial hybrid ribosomes carrying protozoan rRNA decoding site; design: unit not given here; details: Leishmania Trypanosoma decoding site in bacterial hybrid ribosome
Procedure: as §1, §3

Compound: NC[C@H]1O[C@H](O[C@H]2[C@H](O)[C@@H](O[C@H]3O[C@H](CO)[C@@H](O)[C@H](N)[C@H]3O)[C@H](N)C[C@@H]2N)[C@H](N)C[C@@H]1O [Tobramycin]
- MIC ([1]; Mycolicibacterium smegmatis, 72 h, read-out: MIC, minimal inhibitory concentration): 2 µg/mL
- MIC ([2]; Mycolicibacterium smegmatis, CELLS1408G, 72 h, read-out: MIC, minimal inhibitory concentration): > 1020 µg/mL

Compound: Gentamicin
- MIC, minimal inhibitory concentration ([1]; wild type bacterial cells 1408A, 72h at 37° C.): 1 µg/mL
- MIC, minimal inhibitory concentration ([2]; mutant bacterial cells 1408G, 72h at 37° C.): >1024 µg/mL
- MIC (M. smegmatis): 1
- MIC [3]: 64-128
- MIC [4]: >1024

Compound: Neomycin
- MIC (M. smegmatis): 0.5
- MIC [3]: 16-32
- MIC [4]: >1024
